Reference: patent US20260144805A1, “CANNABIDIOL COMPOSITIONS FOR USE IN THE TREATMENT OF NEURODEGENERATIVE AND NEUROLOGICAL DISORDERS” (JAZZ PHARMACEUTICALS RESEARCH UK LIMITED, priority 2022, published 2026)

What was measured:
rat VPA model = assay: Social interaction: Social Approach Avoidance (SAA) P60 in rat VPA model (Example 5; DS = DS-E); format: in vivo; conditions: adult; risperidone 0.125 mg/kg
Method: Time-mated female Wistar rats were administered a single dose of valproic acid (VPA, 600 mg/kg, i.p.) on gestational day 12.5. Male offspring were delivered and confirmation of the VPA induced developmental deficit was rapidly achieved by examination of characteristic “tail kinks” in the juvenile animals. The timeline of experiments is outlined in FIG. 8 and animals were randomly allocated to treatment groups (Table O).
Control animals were administered sterile saline (0.9% w/v, i.p.) in utero and the vehicle control (ethanol: Kolliphor HS15: saline (1:1:18, v/v/v), i.p.
This test was originally used for assessing anxiety-like behavior and subsequently used to assess the social behavior in potential animal models of schizophrenia (Sams-Dodd, 1995 Behav Pharmacol. 6:55) but has been extended to the study of autism models (Schneider and Przewlocki, 2005 Neuropsychopharmacol. 30:80). Therefore, utilising a model based on published designs (Brodkin et al., 2004 Brain Res. 1002:151; Moy et al., 2004 Genes Brain Behav. 3:287) adult animals were assessed for social preference following prenatal VPA exposure whereby a novel animal was introduced to the test arena (n=8). The main outcome measure was the time engaged in active social behavior. Additionally, the time spent in each of the social, non-social and neutral chamber was also determined. […]

rTg4510 mice = assay: Open Field (OF) test, locomotor activity in rTg4510 mouse model of Alzheimer's Disease (Example 2; DS = DS-C); format: in vivo; conditions: Week 31; for Locomotor activity totals, % vs Wild-type / Locomotor activity totals, % vs rTg4510 / Locomotor activity totals, Mean: Risperidone 0.125 mg/kg i.p.
Method: The aim of this study was to evaluate the efficacy of the present drug substance to modulate the agitation-like behaviours in the rTg4510 regulatable mouse model of Alzheimer's Disease (AD). Animals were tested in a behavioural assay, the Open Field (OF) test to measure locomotor activity (LMA). Activity was first assessed at a 21-week-old baseline to determine whether a hyperactive phenotype (to be used as a proxy for agitation) had developed and was further assessed at 2 subsequent ages in acute and chronic efficacy phases.
Ninety male rTg4510 (CC) mice and 15 wild-type (WW) (Tg(Camk2a-tTA)1Mmay Fgf14^Tg(tetO-MAPT*P301L)4510Kha/J, Jax strain #024854, licensed from the Mayo Clinic, USA) were split into 2 cohorts, 4 weeks apart in age; cohort 1 contained 53 mice (8 WW and 45 CC) and cohort 2 contained 52 mice (7 WW and 45 CC). Relative humidity was 55±15% throughout. Mice were housed in individually ventilated cages on a 12 h/12 h light/dark cycle (lights on at 07.00 h; illumination by red light during the dark phase), at an ambient temperature of 24±4° C. with free access to standard rodent maintenance diet and filtered water. Animals were allowed to acclimatise to the above conditions for 7-10 days prior to the study start. All housing groupings were preserved until the mice were approximately 5 months old, at which point they were singly housed.
Doxycycline administration: a subset of animals in cohort 2 (n=15) was administered 2× daily oral bolus doses of doxycycline hyclate (10 mg/kg p.o. in 5% glucose, Sigma Aldrich) at 13 weeks of age, followed by continuous exposure to normal lab chow containing 200 ppm doxycycline (Envigo Teklad 2018 TD.00502 no colourants, irradiated and vacuum-packed). All other animals received Envigo Teklad 2018 diet. All diet was provided ad libitum.
Following this regime, animals were evaluated in Open Field (OF) test, before being deeply anaesthetised at the end of the behavioural testing prior to biofluid sampling and tissue harvesting.
Specifically, the material was solubilised by the addition of 50 μL of 10% glacial acetic acid and making up to volume with 0.9% saline (Aquapharm, Animal Care, York, UK, Lot 21030311).
Drug Substance (DS): (i.e., DS-C, See Table B in Example 1) Dosing volume was 10 mL/kg and DS was formulated at the 150 mg/kg dose in a vehicle of ethanol: Kolliphor HS15: 0.9% saline (1:12:87, w/w/v) which were stored at room temperature and added at approximately 60° C. to form solutions which were subsequently stable at room temperature. All dosing formulations were protected from light whenever possible. Dosing solutions were made fresh on the day of dosing, with lower dose formulations being prepared by dilution from the 150 mg/kg dosing solution at room temperature.
Locomotor activity was assessed by OF test in the light phase of the light-dark cycle at weeks 21, 26 and 31. An automated beam break apparatus (40 cages) was used for the assessment of locomotor activity in rats and mice. Each cage had 4 beams; 1 ‘y’ and 3 ‘x’ which triggered a signal through capacitors when the beam was broken. Signals were collected by data loggers and processed accordingly. All animals were placed in the apparatus and spontaneous activity was assessed for a four-hour period between 0900 and 1300. Animals were then removed from the apparatus and returned to their home cages. LMA assessment was split over 2 consecutive days at each time point.
For locomotor data, a log (x+1) transformation was used. For weeks 21 & 26, means and SEMs were calculated from the transformed data. Analysis was by Friedman's two-way nonparametric ANOVA with treatment and test day as factors to compare each group to the WW animals, and (where appropriate) Doxycycline with the untreated rTg4510 group. For week 30, data excluding the WW and Doxycycline groups for each time period were analysed by robust regression model using M estimation, Huber weighting, using the default parameter c=1.345. […]

Structure (SMILES): Cc1nc2n(c(=O)c1CCN1CCC(c3noc4cc(F)ccc34)CC1)CCCC2 [Risperidone]
- time engaged in active social behaviour (VPA deficit) (rat VPA model): not prevented
- Locomotor activity totals, % vs Wild-type (rTg4510 mice; 0-30 minutes): 95.7%
- Locomotor activity totals, % vs rTg4510 (rTg4510 mice; 0-30 minutes): 40.1%
- Locomotor activity totals, Mean (rTg4510 mice; 0-30 minutes): 525.99
- Locomotor activity totals, % vs Wild-type (rTg4510 mice; 0-60 minutes): 135.0%
- Locomotor activity totals, % vs rTg4510 (rTg4510 mice; 0-60 minutes): 49.4%
- Locomotor activity totals, Mean (rTg4510 mice; 0-60 minutes): 1313.59
- hyperlocomotion vs rTg4510(vehicle) (rTg4510 mice; 0-60 minutes, risperidone 0.125 mg/kg/d): significantly reversed
- Locomotor activity totals, % vs Wild-type (rTg4510 mice; 30-60 minutes): 183.6%
- Locomotor activity totals, % vs rTg4510 (rTg4510 mice; 30-60 minutes): 46.9%
- Locomotor activity totals, Mean (rTg4510 mice; 30-60 minutes): 641.92
- Locomotor activity totals, % vs Wild-type (rTg4510 mice; 60-90 minutes): 104.9%
- Locomotor activity totals, % vs rTg4510 (rTg4510 mice; 60-90 minutes): 24.1%
- Locomotor activity totals, Mean (rTg4510 mice; 60-90 minutes): 140.56
- Locomotor activity totals, % vs Wild-type (rTg4510 mice; 60-120 minutes): 134.8%
- Locomotor activity totals, % vs rTg4510 (rTg4510 mice; 60-120 minutes): 39.8%
- Locomotor activity totals, Mean (rTg4510 mice; 60-120 minutes): 384.49
- Locomotor activity totals, % vs Wild-type (rTg4510 mice; 90-120 minutes): 241.3%
- Locomotor activity totals, % vs rTg4510 (rTg4510 mice; 90-120 minutes): 79.0%
- Locomotor activity totals, Mean (rTg4510 mice; 90-120 minutes): 132.22
- Locomotor activity totals, % vs Wild-type (rTg4510 mice; 120-150 minutes): 222.8%
- Locomotor activity totals, % vs rTg4510 (rTg4510 mice; 120-150 minutes): 130.5%
- Locomotor activity totals, Mean (rTg4510 mice; 120-150 minutes): 210.31
- Locomotor activity totals, % vs Wild-type (rTg4510 mice; 150-180 minutes): 399.5%
- Locomotor activity totals, % vs rTg4510 (rTg4510 mice; 150-180 minutes): 103.1%
- Locomotor activity totals, Mean (rTg4510 mice; 150-180 minutes): 82.39
- Locomotor activity totals, % vs Wild-type (rTg4510 mice; 180-210 minutes): 136.3%
- Locomotor activity totals, % vs rTg4510 (rTg4510 mice; 180-210 minutes): 103.4%
- Locomotor activity totals, Mean (rTg4510 mice; 180-210 minutes): 27.84
- Locomotor activity totals, % vs Wild-type (rTg4510 mice; 210-240 minutes): 37.5%
- Locomotor activity totals, % vs rTg4510 (rTg4510 mice; 210-240 minutes): 56.3%
- Locomotor activity totals, Mean (rTg4510 mice; 210-240 minutes): 6.99
